Here are results for one compound from patent US20130267551A1, “SUBSTITUTED HYDROGENATED THIENO-PYRROLO[3,2-C]PYRIDINE, LIGANDS, A PHARMACEUTICAL COMPOSITION AND A METHOD FOR USING THE ABOVE” (ALLA CHEM, LLC, priority 2010, published 2013).

In experiment [1] the test system is Adrenergic α1B. Description: competitive radioligand binding, Adrenergic α1B. The settings on record: compound concentration of 1 μM. The method in brief: (§1)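 Radioligand displacement measured quantitatively serves as the readout; each compound is tested at a single concentration of 1 μM against the receptor in a competition binding setup.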
Experiment [2] concerns the target T1, Adrenergic α1D (Homo sapiens, UniProt P25100).
T1 sequence (P25100 1-572): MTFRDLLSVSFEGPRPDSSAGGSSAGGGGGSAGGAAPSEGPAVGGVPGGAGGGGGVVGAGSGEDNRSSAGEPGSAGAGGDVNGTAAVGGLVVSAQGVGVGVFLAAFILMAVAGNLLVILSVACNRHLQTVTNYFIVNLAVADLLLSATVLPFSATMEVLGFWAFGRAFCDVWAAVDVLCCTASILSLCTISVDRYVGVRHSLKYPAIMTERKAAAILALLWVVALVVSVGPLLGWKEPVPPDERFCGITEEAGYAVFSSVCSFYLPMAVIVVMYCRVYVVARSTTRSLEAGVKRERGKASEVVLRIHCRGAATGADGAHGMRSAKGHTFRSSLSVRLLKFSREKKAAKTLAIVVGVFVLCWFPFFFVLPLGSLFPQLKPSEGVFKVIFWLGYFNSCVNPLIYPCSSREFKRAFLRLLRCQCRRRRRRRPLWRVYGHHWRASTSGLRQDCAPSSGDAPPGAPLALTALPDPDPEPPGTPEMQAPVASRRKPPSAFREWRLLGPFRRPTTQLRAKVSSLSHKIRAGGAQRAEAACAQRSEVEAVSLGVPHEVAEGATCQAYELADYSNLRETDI
Description: competitive radioligand binding, Adrenergic α1D. The settings on record: compound concentration of 1 μM; read-out: radio-labelled ligand displacement, Adrenergic α1D. An outline of the steps: as §1

The target in experiment [3] is Dopaminergic D1 (Homo sapiens, UniProt P21728). Description: competitive radioligand binding, Dopaminergic D1. The settings on record: compound concentration of 1 μM; read-out: radio-labelled ligand displacement, Dopaminergic D1. An outline of the steps:
as §1

In experiment [4] the target is Histaminergic H3 (Homo sapiens, UniProt Q9Y5N1). Description: competitive radioligand binding, Histaminergic H3. The settings on record: compound concentration of 1 μM; read-out: radio-labelled ligand displacement, Histaminergic H3. The method in brief: as §1
In experiment [5] the target is Serotoninergic 5-HT2B (Homo sapiens, UniProt P41595). As to the kind of experiment: competitive radioligand binding, Serotoninergic 5-HT2B. The settings on record: read-out: radio-labelled ligand displacement, Serotoninergic 5-HT2B. An outline of the steps:
as §1

The target in experiment [6] is Serotoninergic 5-HT6 (Homo sapiens, UniProt P50406). As to the kind of experiment: competitive radioligand binding, Serotoninergic 5-HT6. The conditions noted are these: compound concentration of 1 μM; read-out: radio-labelled ligand displacement, Serotoninergic 5-HT6. The method in brief: as §1
In experiment [7] the target is Serotoninergic 5-HT7 (Homo sapiens, UniProt P34969). As to the kind of experiment: competitive radioligand binding, Serotoninergic 5-HT7. The settings on record: compound concentration of 1 μM; read-out: radio-labelled ligand displacement, Serotoninergic 5-HT7. The method in brief:
as §1

Experiment [8] has as its system male mice of BALB/c line. As to the kind of experiment: Passive Avoidance of mice in Shuttle Chamber (memory disturbed by Scopolamine). Type of experiment: in vivo. The conditions noted are these: intraperitoneally 30 minutes before training, in combination with Scopolamine. Here is the method: Nootropic action (enhancement of memory disturbed by Scopolamine) of compounds of the general formula 1 in test “Passive Avoidance of mice in Shuttle Chamber”. Shuttle chamber (Ugo Basile, Italy) consisted of two sections was used. […] Sections were connected through a hole which could be overlapped by vertical door. The floor was made of transverse metal bars on which DC current impulses could be fed. Experiments were carried out in aged male mice of BALB/c line weighing 20-24 g. On the first day of experiment 30 minutes before training mice were injected intraperitoneally with physiological solution, (0.3 mg/kg) or Scopolamine in combination with compound 3.6(1).HCl, or Scopolamine in combination with compound 2.5(1).HCl. Each group consisted of 8 animals. Animals were placed in light section, and latent period of the first entry into the dark chamber was registered. Then the vertical door was closed and the animal was punished by 0.6 mA DC current for 3 seconds. After that the animal was taken back to its home cage. In 22-24 hours the same animal was placed again in light section of shuttle chamber and latent period of its first entry into dark section, total time of its stay in light section and number of entries into dark section was registered. Each monitoring lasted for 5 minutes. […]

Experiment [9] concerns male mice of BALB/c line. As to the kind of experiment: Porsolt's Forced Swim Test. The conditions noted are these: after 4 days injections in dose 1 mg/kg, last 5 minutes of the test. The format is in vivo. Here is the method: Antidepressant action of antagonists of the general formula 1 in Porsolt's Forced Swim Test. Test apparatus represented a plastic vessel filled with water up to height of 18 cm at 20-22° C. Experiments were carried out in aged male mice of BALB/c line weighing 20-24 g.
Mice were placed in water and for 15 minutes duration of immobile hanging in water so called behavioural despaire, which is considered to be a measure of depressively-like state, was registered. The last 5 minutes of the test were used for analysis. Automated computerized detection of motion with videosystem and Any-maze program were used in the test.

Experiment [10] deals with male mice of BALB/c line. As to the kind of experiment: Mice behavior in tail suspension test. The settings on record: after 4 days injections in dose of 0.1 mg/kg, 6 minutes. Type of experiment: in vivo. Here is the method:
Antidepressant action of compounds of the general formula 1 in test “Mice behavior in tail suspension test”. Experiments were carried out in aged male mice of BALB/c line weighing 20-24 g. Mice were suspended by tail with scotch tape on holder over horizontal surface at height of about 40 cm, and for 6 minutes of total duration of complete immobility episodes which is considered to be a measure of depressively-like state was registered. Automated computerized detection of motion with videosystem and Any-maze program were used in test.

The subject of experiment [11] is Mice of SHK line. As to the kind of experiment: Prepulse inhibition of startle response in mice (Apomorphine). The conditions noted are these: 1 mg/kg, subcutaneously 60 minutes before the test.

Sequence of Serotoninergic 5-HT6 (P50406 whole entry): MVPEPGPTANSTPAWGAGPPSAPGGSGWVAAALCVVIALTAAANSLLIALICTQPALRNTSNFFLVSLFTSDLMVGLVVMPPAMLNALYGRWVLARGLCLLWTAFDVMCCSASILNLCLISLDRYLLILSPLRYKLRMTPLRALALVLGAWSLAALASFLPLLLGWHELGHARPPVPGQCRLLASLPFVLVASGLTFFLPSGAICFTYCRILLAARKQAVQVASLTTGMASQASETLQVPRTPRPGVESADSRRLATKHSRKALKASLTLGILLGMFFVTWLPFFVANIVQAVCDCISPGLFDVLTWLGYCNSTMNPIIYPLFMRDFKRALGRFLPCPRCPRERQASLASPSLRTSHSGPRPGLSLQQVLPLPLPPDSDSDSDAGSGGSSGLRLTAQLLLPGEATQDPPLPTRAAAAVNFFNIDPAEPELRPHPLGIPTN
Sequence of Serotoninergic 5-HT7 (P34969 whole entry): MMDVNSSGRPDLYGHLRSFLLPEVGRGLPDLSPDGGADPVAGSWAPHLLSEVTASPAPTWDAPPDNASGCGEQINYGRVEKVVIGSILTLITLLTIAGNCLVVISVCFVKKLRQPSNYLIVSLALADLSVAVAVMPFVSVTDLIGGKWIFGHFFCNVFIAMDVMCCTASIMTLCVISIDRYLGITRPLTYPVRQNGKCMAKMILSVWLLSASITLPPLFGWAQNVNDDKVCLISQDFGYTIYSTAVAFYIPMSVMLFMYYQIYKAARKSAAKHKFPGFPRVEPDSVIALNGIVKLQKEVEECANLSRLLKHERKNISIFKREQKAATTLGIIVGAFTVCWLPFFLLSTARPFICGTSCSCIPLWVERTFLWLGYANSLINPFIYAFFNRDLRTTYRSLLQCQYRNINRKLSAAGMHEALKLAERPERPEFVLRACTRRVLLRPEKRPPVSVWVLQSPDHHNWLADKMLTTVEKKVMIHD
Sequence of Serotoninergic 5-HT2B (P41595 whole entry): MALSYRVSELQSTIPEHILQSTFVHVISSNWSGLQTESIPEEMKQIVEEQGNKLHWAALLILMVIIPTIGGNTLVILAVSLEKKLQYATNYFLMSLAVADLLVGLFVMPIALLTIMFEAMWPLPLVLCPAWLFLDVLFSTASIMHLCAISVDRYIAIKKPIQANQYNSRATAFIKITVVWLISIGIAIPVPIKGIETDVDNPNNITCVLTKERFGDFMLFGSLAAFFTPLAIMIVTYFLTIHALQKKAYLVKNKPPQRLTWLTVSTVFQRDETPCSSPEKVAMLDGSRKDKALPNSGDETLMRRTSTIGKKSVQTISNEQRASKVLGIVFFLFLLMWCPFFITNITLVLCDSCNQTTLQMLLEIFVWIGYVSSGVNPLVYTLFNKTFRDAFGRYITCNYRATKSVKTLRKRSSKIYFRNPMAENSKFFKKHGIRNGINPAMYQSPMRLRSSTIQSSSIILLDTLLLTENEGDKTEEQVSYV
Sequence of Dopaminergic D1 (P21728 whole entry): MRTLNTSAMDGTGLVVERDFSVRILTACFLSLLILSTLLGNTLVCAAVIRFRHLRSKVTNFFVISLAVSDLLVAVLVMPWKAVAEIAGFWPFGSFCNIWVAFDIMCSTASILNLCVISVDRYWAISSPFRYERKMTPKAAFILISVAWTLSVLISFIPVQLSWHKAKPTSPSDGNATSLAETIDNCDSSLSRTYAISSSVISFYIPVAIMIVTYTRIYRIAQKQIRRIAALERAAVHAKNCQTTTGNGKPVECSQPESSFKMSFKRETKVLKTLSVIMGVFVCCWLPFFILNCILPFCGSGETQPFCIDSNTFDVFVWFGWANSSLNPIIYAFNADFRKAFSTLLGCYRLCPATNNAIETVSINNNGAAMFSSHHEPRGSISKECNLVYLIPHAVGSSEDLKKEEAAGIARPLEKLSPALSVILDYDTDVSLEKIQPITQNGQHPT
Sequence of Histaminergic H3 (Q9Y5N1 whole entry): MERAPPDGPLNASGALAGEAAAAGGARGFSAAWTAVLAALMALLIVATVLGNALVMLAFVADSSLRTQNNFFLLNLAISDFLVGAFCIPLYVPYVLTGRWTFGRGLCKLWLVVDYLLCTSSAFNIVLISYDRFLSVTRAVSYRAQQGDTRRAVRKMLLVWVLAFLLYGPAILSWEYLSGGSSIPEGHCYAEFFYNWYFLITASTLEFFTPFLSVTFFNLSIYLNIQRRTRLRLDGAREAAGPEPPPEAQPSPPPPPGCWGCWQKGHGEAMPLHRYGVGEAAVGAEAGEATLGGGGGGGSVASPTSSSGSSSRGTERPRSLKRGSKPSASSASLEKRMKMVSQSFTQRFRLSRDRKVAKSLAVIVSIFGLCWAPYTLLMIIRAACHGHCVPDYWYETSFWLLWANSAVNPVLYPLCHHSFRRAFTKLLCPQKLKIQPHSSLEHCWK

On to `Cc1cc2c3c(n(CCc4ccccc4)c2s1)CCN(C)C3.Cl` [3.6(1)•HCl, 2,5-Dimethyl-8-(2-phenylethyl)-5,6,7,8-tetrahydro-4H-thieno[3′,2′:4,5]pyrrolo[3,2-c]pyridine hydrochloride], for which, in experiment [1], the radio-labelled ligand displacement, Adrenergic α1B amounted to 99%. The inhibition at 1 µM was 92% in experiment [2]; 70% in experiment [3]; -17% in experiment [4]; 92% in [5]; 103% in experiment [6]; 99% in experiment [7]. The “Nootropic action: training disturbed by Scopolamine” value in [8] is “improve training disturbed by Scopolamine”. In addition, the “Antidepressant action: duration of immobile hanging in water” value in experiment [9] is given as “decrease this index”. Besides, the “Antidepressant action: duration of complete immobility” value in experiment [10] is given as “decrease the duration of complete immobility of mice”. In experiment [11], the “Antipsychotic activity: disturbance of prepulse inhibition of startle caused by Apomorphine” value was “prevented disturbance of prepulse inhibition of startle caused by Apomorphine”.
